Reference: patent publication US20220071953A1, “Small Molecule Analogs Of The Protein E4ORF1 In The Treatment And Prevention Of Metabolic Disorders” (Texas Tech University System, priority 2019, published 2022)
Entries after “also recorded” stand apart in the source; their conditions may differ.

How the values were obtained:
[1] = test system: 3T3-L1 pre-adipocytes, mature adipocytes and murine skeletal muscle cells; test: In vitro screening of small molecules for cellular glucose uptake; type: cell-based; conditions: 20 μM/well, 24 h; for greater glucose uptake compared to control: other replications not presented; for increase in cellular glucose: tested 3 or more times in different cell types
Experimental: Next, over time, Applicants tested cellular glucose uptake with 41 different E4orf1 analog small molecules in 3T3-L1 pre-adipocytes, mature adipocytes and murine skeletal muscle cells. Cells were exposed to 20 μM/well of E4orf1 analogs. Glucose uptake by cells was determined 24 h later. Insulin and human adenovirus Ad36 were used as positive controls for glucose uptake. The * indicates statistical significance after Bonferroni correction for multiple comparisons.
Applicants conducted glucose uptake assays for compounds several separate times. BN #3 and BT #141 had about 70% greater glucose uptake compared to control in other replications not presented herein.

[2] = test system: C57BL/6J male mice on a 60% kcal high-fat diet; test: Glucose tolerance test (GTT) in high-fat diet fed mice; type: in vivo; conditions: daily injection of 4 mg/kg, GTT 7 and/or 14 days post-treatment, vs DMSO control mice
Experimental: (§1) To determine improvement in glucose disposal in vivo, 10 wk old C57BL/6J male mice (Jax Laboratories) on a 60% kcal high-fat diet (Research diets, Inc.) since 6 weeks of age were divided into weight-matched groups. In individual experiments, mice were treated with daily injection of 4 mg/kg of respective small molecules (BN #3, BT #141, BT #143 and BT #181) or DMSO alone as control. Improvement in glycemic control was determined by glucose tolerance test (GTT) performed at baseline (prior to treatment), 7 days and/or 14 days post-treatment. Insulin-independent action of the small molecules was also measured by collecting blood during GTT and quantifying serum insulin by enzyme-linked immunosorbent assay (ELISA).

[3] = test system: C57BL/6J male mice on a 60% kcal high-fat diet; test: Serum insulin by ELISA during GTT in high-fat diet fed mice; type: in vivo; conditions: daily injection of 4 mg/kg, vs DMSO control mice
Experimental: as §1

3T3L1 preadipocytes = test: Glucose uptake in 3T3L1 preadipocytes treated with E4orf1 analogs; type: cell-based; conditions: analogs 2 μl/ml of media, 24 hr in dark, vs DMSO, repeated 3 times
Experimental: FIG. 3 illustrates that selected E4orf1 chemical analogs increase glucose uptake. 3T3L1 preadipocytes were treated with dimethyl sulfoxide (DMSO) or insulin or treated with analogs BT324, BT325, BT326, BT327, BT328, and BT329. The treatments were compared using one way analysis of variance (ANOVA) and post hoc Tukey's test. Groups sharing same letters are not statistically significant.
(§2) 3T3L1 preadipocytes (passage number 8 below) were used to treat with analogs. As control, cells were treated with equal volumes of DMSO. As positive control, cells were treated with 100 nM insulin. Cells at 70% confluency were treated with analogs (2 μl/ml of media) in dark for 24 hr. Post 24 hr treatment, cells were used either to determine glucose uptake or to obtain cell lysates for determining pAKT abundance by Western blot analysis.

pAkt/Akt = test: Western blot for pAkt/Akt in cell lysates of treated 3T3L1 preadipocytes; type: cell-based; conditions: 24 hr incubation, vs DMSO
Experimental: FIG. 4 illustrates that the E4orf1 chemical analogs that increase glucose uptake also increase pAkt levels—the underlying mechanism for increasing cellular glucose uptake. 3T3L1 preadipocytes were treated with DMSO or insulin or with analogs BT324, BT325, BT327, or BT329. Post 24 hr incubation in the dark, cell lysates were collected and 20 μg of protein was loaded and probed for pAkt/Akt. Band intensities were analyzed using Image J software. Groups sharing same letters are not statistically significant.
as §2

In the case of `Cc1cc(C(C#N)Nc2ccc(B3OC(C)(C)C(C)(C)O3)cc2)no1` (stereo not shown) [BN #3], the “greater glucose uptake compared to control” value [1] is reported as “about 70%”, the “increase in cellular glucose” value [1] is reported as “consistently significant increase in cellular glucose” and the “glucose clearance / glycemic control (GTT)” value ([2]; 4 mg/kg) is reported as “improved glycemic control; also recorded: improved glucose disposal”. The insulin secretion [3] was “lower insulin secretion”.
For `COC(=O)c1cc2cc(Cl)ccc2oc1=O` [BT324], the glucose uptake (3T3L1 preadipocytes) was “significantly increased glucose uptake” and the pAkt/Akt (pAkt/Akt) was “significant increase in pAkt/Akt”.
For `O=C(O)c1cc2cc(Cl)ccc2oc1=O` [BT325], the glucose uptake (3T3L1 preadipocytes) was “significantly increased glucose uptake” and the pAkt/Akt (pAkt/Akt) was “significant increase in pAkt/Akt”.
In the case of `O=C(O)c1cc2cc(Cl)ccc2[nH]c1=O` [BT327], the glucose uptake (3T3L1 preadipocytes) is reported as “significantly increased glucose uptake” and the pAkt/Akt (pAkt/Akt) is reported as “significant increase in pAkt/Akt”.
In the case of `C#Cc1ccc(/C(N)=N/O)cc1` [BT329], the glucose uptake (3T3L1 preadipocytes) is reported as “significantly increased glucose uptake” and the pAkt/Akt (pAkt/Akt) is reported as “significant increase in pAkt/Akt”.
In the case of `CC1(C)OB(c2ccc(C(C#N)Nc3ccc(O)cc3)cc2)OC1(C)C` (stereo not shown) [BT #141], the “greater glucose uptake compared to control” value [1] is reported as “about 70%”, the “increase in cellular glucose” value [1] is reported as “consistently significant increase in cellular glucose” and the “glucose clearance / glycemic control (GTT)” value ([2]; 4 mg/kg) is reported as “improved glycemic control”. The “glucose clearance / glycemic control (GTT)” value ([2]; listed as BN #141, 4 mg/kg) was “improved glucose disposal”.
